# Data from ChEMBL document CHEMBL3885881, “DrugMatrix”.
# Species on record: Rattus norvegicus
# Assay: DrugMatrix - Regimen: Daily Repeat
# Type: toxicity, organism-based, Sprague-Dawley
# Set-up: regimen Daily Repeat, gender Male, age 6-8 weeks
# Conditions: in vivo, po, route oral GAVAGE, […]; for ABSOLUTE BASOPHIL / ABSOLUTE EOSINOPHIL / ABSOLUTE LYMPHOCYTE / ABSOLUTE MONOCYTE / ABSOLUTE SEGMENTED NEUTROPHIL / BASOPHIL / EOSINOPHIL / ERYTHROCYTE COUNT / HEMATOCRIT / HEMOGLOBIN / LEUKOCYTE COUNT / LYMPHOCYTE / MEAN CORPUSCULAR HEMOGLOBIN / MEAN CORPUSCULAR HEMOGLOBIN CONCENTRATION / MEAN CORPUSCULAR VOLUME / MONOCYTE / NEUTROPHIL / NUCLEATED RED BLOOD CELLS / PLATELET COUNT: tissue Blood; for ALANINE AMINOTRANSFERASE / ALBUMIN / ALKALINE PHOSPHATASE / ASPARTATE AMINOTRANSFERASE / BLOOD UREA NITROGEN / CARBON DIOXIDE / CHLORIDE / CHOLESTEROL / CREATINE PHOSPHOKINASE / CREATININE / GLUCOSE / LACTATE DEHYDROGENASE / LIPASE / PHOSPHORUS / POTASSIUM / SODIUM / TOTAL BILIRUBIN / TOTAL PROTEIN / URIC ACID: tissue Plasma
# [1] = 0 mg/kg, 72 h, dose level Control, time 3 day
# [2] = 0 mg/kg, dose level Control, time 7 day
# [3] = 30 mg/kg, 72 h, dose level Low, time 3 day
structure (smiles),measurement,setting,value
S=C=Nc1cccc2ccccc12 [1-NAPHTHYLISOTHIOCYANATE],ABSOLUTE BASOPHIL,[1],0 CELLS/uL
same,ABSOLUTE EOSINOPHIL,[1],47.5 CELLS/uL
same,ABSOLUTE LYMPHOCYTE,[1],9600.67 CELLS/uL
same,ABSOLUTE MONOCYTE,[1],195.5 CELLS/uL
same,ABSOLUTE SEGMENTED NEUTROPHIL,[1],839.67 CELLS/uL
same,BASOPHIL,[1],0%
same,EOSINOPHIL,[1],0.5%
same,ERYTHROCYTE COUNT,[1],5.26 x10E6/uL
same,HEMATOCRIT,[1],34.48%
same,HEMOGLOBIN,[1],12.77 G/DL
same,LEUKOCYTE COUNT,[1],10.68 x10E3/uL
same,LYMPHOCYTE,[1],89.67%
same,MEAN CORPUSCULAR HEMOGLOBIN,[1],24.3 pg
same,MEAN CORPUSCULAR HEMOGLOBIN CONCENTRATION,[1],37.05 G/DL
same,MEAN CORPUSCULAR VOLUME,[1],65.62 fL
same,MONOCYTE,[1],1.83%
same,NEUTROPHIL,[1],8%
same,NUCLEATED RED BLOOD CELLS,[1],0.17 /100WBC
same,PLATELET COUNT,[1],1038.67 x10E3/uL
same,ALANINE AMINOTRANSFERASE,[1],65.17 u/L
same,ALBUMIN,[1],4.2 G/DL
same,ALKALINE PHOSPHATASE,[1],377.5 u/L
same,ASPARTATE AMINOTRANSFERASE,[1],90.5 u/L
same,BLOOD UREA NITROGEN,[1],13.5 mg/dL
same,CARBON DIOXIDE,[1],31.17 mmol/L
same,CHLORIDE,[1],98.33 MEQ/L
same,CHOLESTEROL,[1],66.33 mg/dL
same,CREATINE PHOSPHOKINASE,[1],478.83 u/L
same,CREATININE,[1],0.19 mg/dL
same,GLUCOSE,[1],155.17 mg/dL
same,LACTATE DEHYDROGENASE,[1],107.5 u/L
same,LIPASE,[1],10.33 u/L
same,PHOSPHORUS,[1],9.25 mg/dL
same,POTASSIUM,[1],5.43 MEQ/L
same,SODIUM,[1],142.05 MEQ/L
same,TOTAL BILIRUBIN,[1],0.12 mg/dL
same,TOTAL PROTEIN,[1],5.95 G/DL
same,URIC ACID,[1],0.62 mg/dL
same,ABSOLUTE BASOPHIL,[2],0 CELLS/uL
same,ABSOLUTE EOSINOPHIL,[2],43.5 CELLS/uL
same,ABSOLUTE LYMPHOCYTE,[2],9369.83 CELLS/uL
same,ABSOLUTE MONOCYTE,[2],196.17 CELLS/uL
same,ABSOLUTE SEGMENTED NEUTROPHIL,[2],723.83 CELLS/uL
same,BASOPHIL,[2],0%
same,EOSINOPHIL,[2],0.5%
same,ERYTHROCYTE COUNT,[2],5.09 x10E6/uL
same,HEMATOCRIT,[2],32.42%
same,HEMOGLOBIN,[2],13.1 G/DL
same,LEUKOCYTE COUNT,[2],10.33 x10E3/uL
same,LYMPHOCYTE,[2],90.83%
same,MEAN CORPUSCULAR HEMOGLOBIN,[2],25.75 pg
same,MEAN CORPUSCULAR HEMOGLOBIN CONCENTRATION,[2],40.43 G/DL
same,MEAN CORPUSCULAR VOLUME,[2],63.62 fL
same,MONOCYTE,[2],1.67%
same,NEUTROPHIL,[2],7%
same,NUCLEATED RED BLOOD CELLS,[2],0 /100WBC
same,PLATELET COUNT,[2],1106.5 x10E3/uL
same,ALANINE AMINOTRANSFERASE,[2],48.67 u/L
same,ALBUMIN,[2],4.13 G/DL
same,ALKALINE PHOSPHATASE,[2],275.17 u/L
same,ASPARTATE AMINOTRANSFERASE,[2],73.17 u/L
same,BLOOD UREA NITROGEN,[2],13.17 mg/dL
same,CARBON DIOXIDE,[2],27.5 mmol/L
same,CHLORIDE,[2],99.67 MEQ/L
same,CHOLESTEROL,[2],60.83 mg/dL
same,CREATINE PHOSPHOKINASE,[2],213 u/L
same,CREATININE,[2],0.2 mg/dL
same,GLUCOSE,[2],166.67 mg/dL
same,LACTATE DEHYDROGENASE,[2],94.5 u/L
same,LIPASE,[2],10.5 u/L
same,PHOSPHORUS,[2],9.98 mg/dL
same,POTASSIUM,[2],5.3 MEQ/L
same,SODIUM,[2],140.77 MEQ/L
same,TOTAL BILIRUBIN,[2],0.15 mg/dL
same,TOTAL PROTEIN,[2],5.88 G/DL
same,URIC ACID,[2],0.82 mg/dL
same,ABSOLUTE BASOPHIL,[3],0 CELLS/uL
same,ABSOLUTE EOSINOPHIL,[3],54.67 CELLS/uL
same,ABSOLUTE LYMPHOCYTE,[3],18655.83 CELLS/uL
same,ABSOLUTE MONOCYTE,[3],720.5 CELLS/uL
same,ABSOLUTE SEGMENTED NEUTROPHIL,[3],2902.33 CELLS/uL
same,BASOPHIL,[3],0%
same,EOSINOPHIL,[3],0.33%
same,ERYTHROCYTE COUNT,[3],6.41 x10E6/uL
same,HEMATOCRIT,[3],39.98%
same,HEMOGLOBIN,[3],14.27 G/DL
same,LEUKOCYTE COUNT,[3],22.33 x10E3/uL
same,LYMPHOCYTE,[3],84.17%
same,MEAN CORPUSCULAR HEMOGLOBIN,[3],22.4 pg
same,MEAN CORPUSCULAR HEMOGLOBIN CONCENTRATION,[3],35.92 G/DL
same,MEAN CORPUSCULAR VOLUME,[3],62.38 fL
same,MONOCYTE,[3],3.17%
same,NEUTROPHIL,[3],12.33%
same,NUCLEATED RED BLOOD CELLS,[3],0 /100WBC
same,PLATELET COUNT,[3],844.83 x10E3/uL
same,ALANINE AMINOTRANSFERASE,[3],264.83 u/L
same,ALBUMIN,[3],3.62 G/DL
same,ALKALINE PHOSPHATASE,[3],660.67 u/L
same,ASPARTATE AMINOTRANSFERASE,[3],415.67 u/L
same,BLOOD UREA NITROGEN,[3],12.67 mg/dL
same,CARBON DIOXIDE,[3],28.83 mmol/L
same,CHLORIDE,[3],98 MEQ/L
same,CHOLESTEROL,[3],282.33 mg/dL
same,CREATINE PHOSPHOKINASE,[3],281.83 u/L
same,CREATININE,[3],0.18 mg/dL
same,GLUCOSE,[3],117.33 mg/dL
same,LACTATE DEHYDROGENASE,[3],160.33 u/L
same,LIPASE,[3],11.33 u/L
same,PHOSPHORUS,[3],9.08 mg/dL
same,POTASSIUM,[3],6.45 MEQ/L
same,SODIUM,[3],141.7 MEQ/L
same,TOTAL BILIRUBIN,[3],3.02 mg/dL
same,TOTAL PROTEIN,[3],6.22 G/DL
same,URIC ACID,[3],0.85 mg/dL
